The source of these data is patent publication EP1857440A1, “Novel compounds, isomer thereof, or pharmaceutically acceptable salts thereof as vanilloid receptor antagonist; and pharmaceutical compositions containing the same” (Amorepacific Corporation, priority 2006, dated 2007).

T1 sequence (O35433 whole entry): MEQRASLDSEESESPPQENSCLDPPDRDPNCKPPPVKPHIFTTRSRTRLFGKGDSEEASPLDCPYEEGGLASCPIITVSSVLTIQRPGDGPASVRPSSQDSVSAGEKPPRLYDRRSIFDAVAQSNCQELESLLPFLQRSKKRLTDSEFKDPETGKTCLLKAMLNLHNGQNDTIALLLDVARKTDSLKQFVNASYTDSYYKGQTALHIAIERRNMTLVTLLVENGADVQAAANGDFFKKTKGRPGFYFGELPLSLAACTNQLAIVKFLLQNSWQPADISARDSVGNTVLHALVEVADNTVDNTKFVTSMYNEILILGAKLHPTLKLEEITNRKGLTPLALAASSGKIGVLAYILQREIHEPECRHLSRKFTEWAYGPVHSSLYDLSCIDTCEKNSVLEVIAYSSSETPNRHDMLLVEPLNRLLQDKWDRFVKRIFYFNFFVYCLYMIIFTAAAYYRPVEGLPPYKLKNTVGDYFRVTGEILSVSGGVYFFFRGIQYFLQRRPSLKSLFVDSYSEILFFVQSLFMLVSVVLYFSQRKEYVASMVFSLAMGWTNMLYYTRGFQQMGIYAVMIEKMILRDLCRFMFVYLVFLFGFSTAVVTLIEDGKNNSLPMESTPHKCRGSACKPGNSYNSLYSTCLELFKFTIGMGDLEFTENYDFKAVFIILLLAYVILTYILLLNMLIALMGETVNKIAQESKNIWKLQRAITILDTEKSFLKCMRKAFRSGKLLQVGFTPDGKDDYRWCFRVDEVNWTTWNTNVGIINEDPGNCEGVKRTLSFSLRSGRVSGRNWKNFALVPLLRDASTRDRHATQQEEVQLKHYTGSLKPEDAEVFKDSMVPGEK

The assay has as its target T1, vanilloid receptor (Rattus norvegicus, UniProt O35433).
T1 construct: DRG nerve cells from the primary culture of 2 days were equilibrated by washing 4 times; endogenous in cells; host or cells: primary culture of dorsal root ganglion (DRG) neurons from neonatal SD rats
The assay is described as follows: 45Ca influx test (calcium uptake) in primary cultured neonatal rat DRG neurons, capsaicin-stimulated. The assay is classed as cell-based, SD rats. The settings on record: capsaicin 0.5 µM, 45Ca 10 µCi/ml, 10 mins at room temperature, read-out: Antagonist Calcium Uptake Test (IC50). The protocol:
1) Separation of spinal dorsal root ganglia (DRG) in newborn rats and primary culture thereof
Neonatal (2-3 day old or younger than 2-3 day old) SD rats were put in ice for 5 minutes to anesthetize and disinfected with 70% ethanol. DRG of all part of spinal cord were dissected (Wood et al., 1988, J. Neurosci. 8, pp3208-3220) and collected in DME/F12 medium to which 1.2g/l sodium bicarbonate, 50mg/l gentamycin were added. The DRG were incubated sequentially at 37°C for 30 min in 200 U/ml collagenase and 2.5mg/ml trypsin, separately. The gangiia were washed twice with DME/F12 medium supplemented with 10% horse serum, triturated through a fire-polished Pasteur pipette, filtered through Nitex 80 membrane to obtain single cell suspension and the suspension was washed once more. This was subjected to centrifugation, then resuspended in cell culture medium at certain level of cell density. As the cell culture medium, DME/F12 medium supplemented with 10% horse serum was diluted with identical medium conditioned by C6 glioma cells 2 days on a confluent monolayer (1:1), and NGF (Nerve Growth Factor) was added to adjust 200ng/ml as final concentration. After the cells were grown 2 days in medium where cytosine arabinoside (Ara-C, 100 µM) was added to kill dividing nonneuronal cells, medium was changed to one without Ara-C. The resuspended cells were plated at a density of 1500-2000 neurons/well onto Terasaki plates previously coated with 10 µg/ml poly-D-ornithine.
2) ^45 Ca influx experiments
DRG nerve cells from the primary culture of 2 days were equilibrated by washing 4 times with HEPES (10mM, pH 7.4)-buffered Ca ^2+, Mg^2+-free HBSS (H-HBSS). The solution in each well was removed from the individual well. Medium containing the test compound plus capsaicin (final concentration 0.5 µM) and ^45Ca (final concentration 10 µCi/ml) in H-HBSS was added to each well and incubated at room temperature for 10 mins. Terasaki plates were washed five times with H-HBSS and dried at room temperature. To each well, 0.3% SDS (10 µl) was added to elute ^45Ca. After the addition of scintillation cocktail of into each well, the amount of ^45Ca influx into neuron was measured by counting radioactivity. […] [Table 1] Results of Calcium Influx Test
As for `CC(C)(C)c1ccc(OCC(=O)NCc2ccc(NS(C)(=O)=O)cc2)cc1` [Example 1, 2-(4-tert-Butylphenoxy)-N-(4-methanesulfonylaminobenzyl)acetamide], the IC50 (commonly the point on the concentration scale where inhibition reaches its midpoint) turned out to be 110 nM. Next, `C=Cc1cc(CNC(=O)COc2ccc(C(C)(C)C)cc2)ccc1NS(C)(=O)=O` [Example 4, 2-(4-tert-Butylphenoxy)-N-(4-methanesulfonylamino-3-vinylbenzyl)acetamide]: 81 nM; `CCc1cc(CNC(=O)COc2ccc(C(C)(C)C)cc2)cc(F)c1NS(C)(=O)=O` [Example 7, 2-(4-tert-Butylphenoxy)-N-(3-ethyl-5-fluoro-4-methanesulfonylaminobenzyl)acetamide]: 130 nM; `Cc1cc(CNC(=O)COc2ccc(C(C)(C)C)cc2)cc(Cl)c1NS(C)(=O)=O` [Example 8, 2-(4-tert-Butyl-phenoxy)-N-(3-chloro-4-methanesulfonylamino-5-methylbenzyl)acetamide]: 110 nM. Take `Cc1cc(NS(C)(=O)=O)c(F)cc1CNC(=O)COc1ccc(C(C)(C)C)cc1` [Example 9, 2-(4-tert-Butylphenoxy)-N-(5-fluoro-4-methanesulfonylamino-2-methylbenzyl)acetamide]: the IC50 is 330 nM. On to `Cc1cc(CNC(=O)COc2ccc(C(C)(C)C)cc2)cc(F)c1NS(C)(=O)=O` [Example 10, 2-(4-tert-Butylphenoxy)-N-(3-fluoro-4-methanesulfonylamino-5-methylbenzyl) acetamide], for which the IC50 turned out to be 160 nM. Next, `C[C@@H](NC(=O)COc1ccc(C(C)(C)C)cc1)c1ccc(NS(C)(=O)=O)cc1` [Example 11, (R)-2-(4-tert-Butylphenoxy)-N-[1-(4-methanesulfonylaminophenyl)ethyl]acetamide]: 96 nM. For the compound `C[C@@H](Oc1ccc(C(C)(C)C)cc1)C(=O)NCc1ccc(NS(C)(=O)=O)c(F)c1` [Example 13, (R)-2-(4-tert-Butylphenoxy)-N-(3-fluoro-4-methanesulfonylaminobenzyl)propionamide], the IC50 was 160 nM. `C[C@H](Oc1ccc(C(C)(C)C)cc1)C(=O)NCc1ccc(NS(C)(=O)=O)c(F)c1` [Example 14, (S)-2-(4-tert-Butylphenoxy)-N-(3-fluoro-4-methanesulfonylaminobenzyl)propionamide]: the IC50 was determined as 760 nM.

With `C[C@@H](NC(=S)COc1ccc(C(C)(C)C)cc1)c1ccc(NS(C)(=O)=O)cc1` [Example 15, (R)-2-(4-tert-Butylphenoxy)-N-[1-(4-methanesulfonylaminophenyl)ethyl]thioacetamide], the IC50 is 680 nM.

With `C[C@@H](N/C(COc1ccc(C(C)(C)C)cc1)=N/C#N)c1ccc(NS(C)(=O)=O)cc1` [Example 17, (R)-2-(4-tert-Butylphenoxy)-N-[1-(4-methanesulfonylaminophenyl)ethyl]-N'-cyanoacetamidine], the half-maximal inhibitory concentration (IC50) stood at 210 nM. As for `CC(C)(C)c1ccc(SCC(=O)NCc2ccc(NS(C)(=O)=O)c(F)c2)cc1` [Example 19, 2-(4-tert-Butyl-phenylsulfanyl)-N-(3-fluoro-4-methanesulfonylaminobenzyl)-acetamide], the IC50 was 1500 nM. Next, `C#Cc1cc(CNC(=O)CSc2ccc(C(C)(C)C)cc2)cc(F)c1NS(C)(=O)=O` [Example 20, 2-(4-tert-Butyl-phenylsulfanyl)-N-(3-ethynyl-5-fluoro-4-methanesulfonylamino-benzyl)-acetamide]: 190 nM; `CC(C)(Oc1ccc(C(F)(F)F)cc1)C(=O)NCc1ccc(NS(C)(=O)=O)c(Cl)c1` [Example 21, N-(3-Chloro-4-methanesulfonylamino-benzyl)-2-methyl-2-(4-trifluoromethyl-phenoxy)-propionamide]: greater than 10000 nM.

For `CS(=O)(=O)Nc1ccc(CNC(=O)COc2ccc(Cl)cc2Cl)cc1F` [Example 22, 2-(2,4-Dichloro-phenoxy)-N-(3-fluoro-4-methanesulfonylaminobenzyl)-acetamide], the IC50 is greater than 10000 nM.

For `CC(C)(Oc1ccc(C(F)(F)F)cc1)C(=O)NCc1ccc(NS(C)(=O)=O)c(F)c1` [Example 23, N-(3-Fluoro-4-methanesulfonylamino-benzyl)-2-methyl-2-(4-trifluoromethyl-phenoxy)-propionamide], the IC50 was greater than 10000 nM. With `CS(=O)(=O)Nc1ccc(CNC(=O)COc2ccc(Cl)c(Cl)c2)cc1F` [Example 25, 2-(3,4-Dichloro-phenoxy)-N-(3-fluoro-4-methanesulfonylaminobenzyl)-acetamide], the IC50 stood at 2300 nM.

Take `CS(=O)(=O)Nc1ccc(CNC(=O)COCc2ccc(C(F)(F)F)cc2)cc1F` [Example 26, N-(3-Fluoro-4-methanesulfonylamino-benzyl)-2-(4-trifluoromethylbenzyloxy)-acetamide]: the IC50 is greater than 10000 nM. For the compound `CS(=O)(=O)Nc1ccc(CNC(=O)COc2ccc(-c3ccccc3)cc2)cc1F` [Example 27, 2-(Biphenyl-4-yloxy)-N-(3-fluoro-4-methanesulfonylamino-benzyl)-acetamide], the IC50 was greater than 10000 nM. Next, `CS(=O)(=O)Nc1ccc(CNC(=O)COc2ccc(OC(F)(F)F)cc2)cc1F` [Example 28, N-(3-Fluoro-4-methanesulfonylaminobenzyl)-2-(4-(trifluoromethoxy)phenoxy)acetamide]: 4300 nM. Next, `CS(=O)(=O)Nc1ccc(CNC(=O)COc2ccc3c(c2)OCO3)cc1F` [Example 29, 2-(Benzo[1,3]dioxol-5-yloxy)-N-(3-fluoro-4-methanesulfonylaminobenzyl)-acetamide]: greater than 10000 nM.

As to `C=Cc1cc(CNC(=O)COc2ccc3c(c2)OCO3)cc(F)c1NS(C)(=O)=O` [Example 30, 2-(Benzo[1,3]dioxol-5-yloxy)-N-(3-fluoro-4-methanesulfonylamino-5-vinyl-benzyl)-acetamide], the IC50 was 3400 nM.

As for `COc1cc(C)ccc1OCC(=O)NCc1ccc(NS(C)(=O)=O)c(F)c1` [Example 31, N-(3-Fluoro-4-methanesulfonylamino-benzyl)-2-(2-methoxy-4-methyl-phenoxy)-acetamide], the half-maximal inhibitory concentration (IC50) was greater than 10000 nM.

`COc1cc(Cl)ccc1OCC(=O)NCc1ccc(NS(C)(=O)=O)c(F)c1` [Example 32, 2-(4-Chloro-2-methoxy-phenoxy)-N-(3-fluoro-4methanesulfonylamino-benzyl)-acetamide]: the IC50 is greater than 10000 nM. Take `CS(=O)(=O)Nc1ccc(CNC(=O)COc2cc(Cl)cc(Cl)c2)cc1F` [Example 33, N-(3-Fluoro-4-methanesulfonylaminobenzyl)-2-(3,5-dichlorophenoxy)acetamide]: the concentration for half-maximal inhibition (IC50) was greater than 10000 nM. Next, `CS(=O)(=O)Nc1ccc(CNC(=O)COc2ccc(Cl)cc2)cc1F` [Example 34, 2-(4-Chloro-phenoxy)-N-(3-fluoro-4-methanesulfonylamino-benzyl)-acetamide]: 8700 nM.

Regarding `Cc1cc(OCC(=O)NCc2ccc(NS(C)(=O)=O)c(F)c2)ccc1[N+](=O)[O-]` [Example 35, N-(3-Fluoro-4-methanesulfonylaminobenzyl)-2-(3-methyl-4-nitrophenoxy)acetamide], the IC50 is greater than 10000 nM. Next, `CS(=O)(=O)Nc1ccc(CNC(=O)COc2ccc(I)cc2)cc1F` [Example 36, N-(3-Fluoro-4-methanesulfonylamino-benzyl)-2-(4-iodo-phenoxy)-acetamide]: 1200 nM; `CS(=O)(=O)Nc1ccc(CNC(=O)COc2ccc(F)cc2F)cc1F` [Example 37, N-(3-Fluoro-4-methanesulfonylaminobenzyl)-2-(2,4-difluorophenoxy)acetamide]: greater than 10000 nM.

In the case of `CS(=O)(=O)Nc1ccc(CNC(=O)COc2c(I)cc(C(F)(F)F)cc2I)cc1F` [Example 38, 2-(2,6-Diiodo-4-trifluoromethyl-phenoxy)-N-(3-fluoro-4-methanesulfonylamino-benzyl)-acetamide], the IC50 turned out to be 2600 nM. Next, `CS(=O)(=O)Nc1ccc(CNC(=O)COc2ccc(C(F)(F)F)cc2I)cc1F` [Example 39, N-(3-Fluoro-4-methanesulfonylamino-benzyl)-2-(2-iodo-4-trifluoromethyl-phenoxy)-acetamide]: greater than 10000 nM; `CC(C)(C)c1cccc(OCC(=O)NCc2ccc(NS(C)(=O)=O)c(F)c2)c1` [Example 40, N-(3-Fluoro-4-methanesulfonylaminobenzyl)-2-(3-tert-butylphenoxy)acetamide]: 1800 nM. In the case of `CCCOc1ccc(OCC(=O)NCc2ccc(NS(C)(=O)=O)c(F)c2)cc1` [Example 41, N-(3-Fluoro-4-methanesulfonylaminobenzyl)-2-(4-n-propoxyphenoxy)acetamide], the IC50 was greater than 10000 nM.
